Data from patent US10851089B2, “Matrix metalloproteinase (MMP) inhibitors and methods of use thereof” (Foresee Pharmaceuticals Co., Ltd., priority 2018, dated 2020).
Read-outs that look alike come from different tables or passages of the source.

What was measured:
Format in all cases: biochemical
[1] = molecular target: recombinant human MMP-12 catalytic domain (Homo sapiens (Human), UniProt P39900); assay: MMP-12 inhibitory assay (fluorogenic substrate cleavage)
Procedure: (§1) The inhibitory effect of compounds on the rate of cleaving fluorogenic MMP substrate (Enzo, BML-P128) by recombinant human MMP-12 catalytic domain (Enzo, BML-SE138) was carried out by methods known in the art. Briefly, to each well of a 96-well black opaque plate, all the reagents were sequentially added by pipetting, and the final reaction contained 4 nM of recombinant human MMP-12 catalytic domain, 4 μM of fluorogenic MMP substrate, and various concentrations (0.15 nM to 10,000 nM) of tested compound dilutions in HEPES buffer (pH 7.5) containing 10 mM of CaCl2, 0.01% Brij® 35 (polyoxyethylene (23) lauryl ether), and 0.1 mg/ml of BSA.
(§2) The enzyme and compounds were pre-incubated on a shaker to mix in wells. After an hour of mixing, fluorogenic substrate was added to each well. Reaction without enzyme was used as a blank control in the plate. The plate was then fed into a plate reader to measure fluorescence intensity at Excitation/Emission wavelengths of 340 nm/440 nm every 10 mins for at least 1 hour at 37° C. The IC50 of each compound in MMP-12 inhibition was determined by using a readout obtained at time point 30 minutes.

recombinant human MMP-10 = recombinant human MMP-10 (Homo sapiens (Human), UniProt P09238); assay: MMP selectivity assay MMP-10
Chain of recombinant human MMP-10 (P09238 99-476): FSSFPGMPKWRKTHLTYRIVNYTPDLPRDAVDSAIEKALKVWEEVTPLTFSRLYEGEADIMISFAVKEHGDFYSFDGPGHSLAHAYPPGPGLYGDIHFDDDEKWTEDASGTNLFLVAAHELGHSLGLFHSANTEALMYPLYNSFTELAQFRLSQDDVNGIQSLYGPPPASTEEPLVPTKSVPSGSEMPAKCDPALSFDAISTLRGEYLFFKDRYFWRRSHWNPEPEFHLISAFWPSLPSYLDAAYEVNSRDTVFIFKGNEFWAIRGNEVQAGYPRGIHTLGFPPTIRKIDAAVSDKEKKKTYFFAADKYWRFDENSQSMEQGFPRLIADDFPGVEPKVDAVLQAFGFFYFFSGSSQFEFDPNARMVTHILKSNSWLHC
Procedure: as §1, §2
(§3) The MMP selectivity assay was performed by using other recombinant human MMPs, including MMP-1, MMP-2, MMP-3, MMP-7, MMP-8, MMP-9, MMP-10, MMP-13, and MMP-14. The IC50 of the compounds for the other recombinant human MMPs was determined as described above in Example 1, and are shown in Table 2.

recombinant human MMP-3 = recombinant human MMP-3 (Homo sapiens (Human), UniProt P08254); assay: MMP selectivity assay MMP-3
Chain of recombinant human MMP-3 (P08254 100-477): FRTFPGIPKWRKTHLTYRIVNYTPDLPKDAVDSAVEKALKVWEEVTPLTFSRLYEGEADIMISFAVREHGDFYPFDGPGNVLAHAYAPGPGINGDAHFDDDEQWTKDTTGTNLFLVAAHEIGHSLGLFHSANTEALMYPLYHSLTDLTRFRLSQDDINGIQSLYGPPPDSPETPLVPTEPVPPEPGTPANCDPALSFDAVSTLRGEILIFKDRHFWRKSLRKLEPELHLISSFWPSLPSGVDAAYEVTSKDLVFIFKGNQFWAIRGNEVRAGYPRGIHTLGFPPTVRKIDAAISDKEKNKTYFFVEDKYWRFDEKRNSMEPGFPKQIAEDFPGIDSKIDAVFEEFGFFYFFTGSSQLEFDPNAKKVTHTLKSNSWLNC
Procedure: as §1, §2, §3

recombinant human MMP-14 = recombinant human MMP-14 (Homo sapiens (Human), UniProt P50281); assay: MMP selectivity assay MMP-14
Procedure: as §1, §2, §3

recombinant human MMP-7 = recombinant human MMP-7 (Homo sapiens (Human), UniProt P09237); assay: MMP selectivity assay MMP-7
Chain of recombinant human MMP-7 (P09237 95-267): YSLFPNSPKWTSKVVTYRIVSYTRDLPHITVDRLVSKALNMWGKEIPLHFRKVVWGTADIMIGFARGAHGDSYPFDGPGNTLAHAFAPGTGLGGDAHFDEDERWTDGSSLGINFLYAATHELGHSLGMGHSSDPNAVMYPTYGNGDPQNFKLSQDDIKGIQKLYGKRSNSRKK
Procedure: as §1, §2, §3

recombinant human MMP-8 = recombinant human MMP-8 (Homo sapiens (Human), UniProt P22894); assay: MMP selectivity assay MMP-8
Chain of recombinant human MMP-8 (P22894 101-467): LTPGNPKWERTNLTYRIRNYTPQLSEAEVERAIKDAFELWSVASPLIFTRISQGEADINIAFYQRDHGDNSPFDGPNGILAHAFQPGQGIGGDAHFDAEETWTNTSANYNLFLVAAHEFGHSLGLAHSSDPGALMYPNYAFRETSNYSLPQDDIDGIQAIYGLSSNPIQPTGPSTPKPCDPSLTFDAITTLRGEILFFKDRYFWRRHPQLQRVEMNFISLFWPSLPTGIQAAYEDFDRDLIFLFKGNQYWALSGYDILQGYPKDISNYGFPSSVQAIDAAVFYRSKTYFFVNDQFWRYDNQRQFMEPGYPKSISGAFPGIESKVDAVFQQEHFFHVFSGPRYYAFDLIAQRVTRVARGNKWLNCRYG
Procedure: as §1, §2, §3

recombinant human MMP-1 = recombinant human MMP-1 (Homo sapiens (Human), UniProt P03956); assay: MMP selectivity assay MMP-1
Chain of recombinant human MMP-1 (P03956 100-469): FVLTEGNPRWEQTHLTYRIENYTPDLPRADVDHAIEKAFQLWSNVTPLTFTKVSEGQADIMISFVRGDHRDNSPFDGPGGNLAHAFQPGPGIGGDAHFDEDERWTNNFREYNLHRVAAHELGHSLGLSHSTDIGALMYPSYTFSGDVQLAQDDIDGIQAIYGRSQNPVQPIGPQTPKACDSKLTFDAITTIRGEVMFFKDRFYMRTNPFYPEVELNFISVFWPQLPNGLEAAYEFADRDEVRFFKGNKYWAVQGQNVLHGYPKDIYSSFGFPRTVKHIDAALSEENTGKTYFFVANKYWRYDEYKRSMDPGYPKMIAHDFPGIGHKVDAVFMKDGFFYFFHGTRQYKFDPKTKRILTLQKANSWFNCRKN
Procedure: as §1, §2, §3

recombinant human MMP-13 = recombinant human MMP-13 (Homo sapiens (Human), UniProt P45452); assay: MMP selectivity assay MMP-13
Procedure: as §1, §2, §3

recombinant human MMP-9 = recombinant human MMP-9 (Homo sapiens (Human), UniProt P14780); assay: MMP selectivity assay MMP-9
Chain of recombinant human MMP-9 (P14780 94-707): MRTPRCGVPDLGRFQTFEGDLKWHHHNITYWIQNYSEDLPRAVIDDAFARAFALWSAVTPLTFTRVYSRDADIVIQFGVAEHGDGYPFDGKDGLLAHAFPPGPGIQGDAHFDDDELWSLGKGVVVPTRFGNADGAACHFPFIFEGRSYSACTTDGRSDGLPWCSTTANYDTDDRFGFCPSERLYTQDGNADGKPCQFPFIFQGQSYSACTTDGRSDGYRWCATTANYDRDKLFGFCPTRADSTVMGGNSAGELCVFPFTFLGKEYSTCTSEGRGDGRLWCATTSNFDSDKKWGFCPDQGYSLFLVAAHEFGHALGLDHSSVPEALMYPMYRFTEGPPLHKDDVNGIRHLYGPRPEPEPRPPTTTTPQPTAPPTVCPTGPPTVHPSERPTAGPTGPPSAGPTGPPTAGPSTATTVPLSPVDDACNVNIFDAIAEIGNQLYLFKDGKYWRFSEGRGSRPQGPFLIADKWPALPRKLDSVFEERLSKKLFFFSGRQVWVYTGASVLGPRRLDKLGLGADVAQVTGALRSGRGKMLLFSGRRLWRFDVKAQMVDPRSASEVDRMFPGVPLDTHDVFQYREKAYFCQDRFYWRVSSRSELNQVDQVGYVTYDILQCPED
Procedure: as §1, §2, §3

recombinant human MMP-2 = recombinant human MMP-2 (Homo sapiens (Human), UniProt P08253); assay: MMP selectivity assay MMP-2
Chain of recombinant human MMP-2 (P08253 110-660): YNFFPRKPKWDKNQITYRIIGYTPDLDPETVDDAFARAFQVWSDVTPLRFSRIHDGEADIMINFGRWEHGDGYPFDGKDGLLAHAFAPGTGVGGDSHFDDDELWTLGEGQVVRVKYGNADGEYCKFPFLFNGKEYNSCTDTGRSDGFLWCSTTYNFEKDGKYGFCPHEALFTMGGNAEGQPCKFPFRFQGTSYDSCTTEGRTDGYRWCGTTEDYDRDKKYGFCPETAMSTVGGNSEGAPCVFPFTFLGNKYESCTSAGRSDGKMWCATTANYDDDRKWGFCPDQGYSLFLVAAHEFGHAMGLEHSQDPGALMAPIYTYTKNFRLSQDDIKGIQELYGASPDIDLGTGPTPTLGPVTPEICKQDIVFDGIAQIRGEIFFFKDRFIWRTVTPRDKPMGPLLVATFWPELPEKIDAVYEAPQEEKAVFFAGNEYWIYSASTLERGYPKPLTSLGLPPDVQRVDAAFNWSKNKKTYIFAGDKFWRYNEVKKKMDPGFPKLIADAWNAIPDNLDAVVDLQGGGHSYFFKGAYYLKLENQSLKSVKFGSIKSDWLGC
Procedure: as §1, §2, §3

[2] = readout at 30 minutes, read-out: MMP-12 IC50
[3] = Table 2 selectivity profile, read-out: MMP-12 activity (IC50)

Chain of recombinant human MMP-12 catalytic domain (P39900 106-263): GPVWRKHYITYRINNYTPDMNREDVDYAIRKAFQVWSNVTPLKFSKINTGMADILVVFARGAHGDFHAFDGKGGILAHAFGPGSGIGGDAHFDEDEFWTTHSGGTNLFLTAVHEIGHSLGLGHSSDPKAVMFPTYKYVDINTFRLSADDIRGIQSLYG

Cc1cccc(COc2ccc(Sc3ccoc3C3(C(C)C)NC(=O)NC3=O)cc2)c1 (stereo not shown) [FC-12]
IC50 [1, 2]: < 0.01 µM

Cc1cccc(COc2ccc(Sc3ccoc3C3NC(=O)NC3=O)cc2)[n+]1O (stereo not shown) [FC-5]
IC50 [1, 2]: > 1 µM

NC(=O)c1cccc(COc2ccc(Sc3ccoc3C3NC(=O)NC3=O)cc2)c1 (stereo not shown) [FC-17]
IC50 (recombinant human MMP-10): 0.1 to 1 µM | IC50 (recombinant human MMP-3): 0.1 to 1 µM | IC50 (recombinant human MMP-14): 1 to 10 µM | IC50 (recombinant human MMP-7): > 10 µM | IC50 (recombinant human MMP-8): 0.1 to 1 µM | IC50 (recombinant human MMP-1): > 10 µM | IC50 (recombinant human MMP-13): 0.1 to 1 µM | IC50 [1, 3]: < 0.01 µM | IC50 [1, 2]: < 0.01 µM | IC50 (recombinant human MMP-9): 1 to 10 µM | IC50 (recombinant human MMP-2): 0.1 to 1 µM

Cc1cccc(COc2ccc(Sc3ccoc3C3(CC(C)C)NC(=O)NC3=O)cc2)c1 (stereo not shown) [FC-10]
IC50 (recombinant human MMP-10): 1 to 10 µM | IC50 (recombinant human MMP-3): 0.1 to 1 µM | IC50 (recombinant human MMP-14): 1 to 10 µM | IC50 (recombinant human MMP-7): > 10 µM | IC50 (recombinant human MMP-8): 1 to 10 µM | IC50 (recombinant human MMP-1): > 10 µM | IC50 (recombinant human MMP-13): 1 to 10 µM | IC50 [1, 3]: < 0.01 µM | IC50 [1, 2]: < 0.01 µM | IC50 (recombinant human MMP-9): 1 to 10 µM | IC50 (recombinant human MMP-2): 1 to 10 µM

CCOc1cc(COc2ccc(Sc3ccoc3C3NC(=O)NC3=O)cc2)ccn1 (stereo not shown) [FC-14]
IC50 [1, 2]: 0.01 to 0.1 µM

O=C1NC(=O)C(c2occc2Sc2ccc(OCc3ccc(CO)cc3)cc2)N1 (stereo not shown) [FC-25]
IC50 [1, 2]: < 0.01 µM

Cc1cccc(COc2ccc(Sc3cc(C)oc3C3NC(=O)NC3=O)cc2)c1 (stereo not shown) [FC-28]
IC50 [1, 2]: 0.01 to 0.1 µM

Cc1cccc(COc2ccc(Sc3ccoc3C3(C)NC(=O)NC3=O)cc2)c1 (stereo not shown) [FC-8]
IC50 [1, 2]: < 0.01 µM

Cc1cc(CN(C)c2ccc(Sc3ccoc3C3NC(=O)NC3=O)cc2)ccn1 (stereo not shown) [FC-33]
IC50 [1, 2]: > 1 µM

Cc1cccc(COc2ccc(Sc3ccoc3C3NC(=O)NC3=O)cc2)n1 (stereo not shown) [FC-2]
IC50 [1, 2]: 0.01 to 0.1 µM

CC(C)Oc1cccc(COc2ccc(Sc3ccoc3C3NC(=O)NC3=O)cc2)c1 (stereo not shown) [FC-21]
IC50 [1, 2]: 0.1 to 1 µM

Cc1ccnc(COc2ccc(Sc3ccoc3C3NC(=O)NC3=O)cc2)c1 (stereo not shown) [FC-1]
IC50 [1, 2]: 0.1 to 1 µM

NC(=O)c1ccc(COc2ccc(Sc3ccoc3C3NC(=O)NC3=O)cc2)cc1 (stereo not shown) [FC-18]
IC50 [1, 2]: 0.01 to 0.1 µM

CC(C)Oc1cc(COc2ccc(Sc3ccoc3C3NC(=O)NC3=O)cc2)ccn1 (stereo not shown) [FC-16]
IC50 [1, 2]: 0.1 to 1 µM

CCOc1cccc(COc2ccc(Sc3ccoc3C3NC(=O)NC3=O)cc2)c1 (stereo not shown) [FC-20]
IC50 [1, 2]: 0.1 to 1 µM

Cc1cncc(COc2ccc(Sc3ccoc3C3NC(=O)NC3=O)cc2)c1 (stereo not shown) [FC-3]
IC50 [1, 2]: 0.01 to 0.1 µM

CCCC1(c2occc2Sc2ccc(OCc3cccc(C)c3)cc2)NC(=O)NC1=O (stereo not shown) [FC-11]
IC50 (recombinant human MMP-10): 1 to 10 µM | IC50 (recombinant human MMP-3): 0.1 to 1 µM | IC50 (recombinant human MMP-14): 1 to 10 µM | IC50 (recombinant human MMP-7): > 10 µM | IC50 (recombinant human MMP-8): 1 to 10 µM | IC50 (recombinant human MMP-1): > 10 µM | IC50 (recombinant human MMP-13): 1 to 10 µM | IC50 [1, 3]: < 0.01 µM | IC50 [1, 2]: < 0.01 µM | IC50 (recombinant human MMP-9): 1 to 10 µM | IC50 (recombinant human MMP-2): 1 to 10 µM

CCC1(c2occc2Sc2ccc(OCc3ccnc(C)c3)cc2)NC(=O)NC1=O (stereo not shown) [FC-32]
IC50 [1, 2]: < 0.01 µM

Cc1cc(Sc2ccc(OCc3cccc(CO)c3)cc2)c(C2NC(=O)NC2=O)o1 (stereo not shown) [FC-27]
IC50 (recombinant human MMP-10): 0.1 to 1 µM | IC50 (recombinant human MMP-3): 0.1 to 1 µM | IC50 (recombinant human MMP-14): 1 to 10 µM | IC50 (recombinant human MMP-7): > 10 µM | IC50 (recombinant human MMP-8): 0.1 to 1 µM | IC50 (recombinant human MMP-1): > 10 µM | IC50 (recombinant human MMP-13): 0.1 to 1 µM | IC50 [1, 3]: < 0.01 µM | IC50 [1, 2]: < 0.01 µM | IC50 (recombinant human MMP-9): 1 to 10 µM | IC50 (recombinant human MMP-2): 0.1 to 1 µM

COc1cc(COc2ccc(Sc3ccoc3C3NC(=O)NC3=O)cc2)ccn1 (stereo not shown) [FC-13]
IC50 [1, 2]: 0.01 to 0.1 µM

CCCOc1cccc(COc2ccc(Sc3ccoc3C3NC(=O)NC3=O)cc2)c1 (stereo not shown) [FC-22]
IC50 [1, 2]: > 1 µM

Cc1cc(COc2ccc(Sc3ccoc3C3NC(=O)NC3=O)cc2)c[n+]([O-])c1 (stereo not shown) [FC-6]
IC50 [1, 2]: 0.1 to 1 µM

CCC1(c2occc2Sc2ccc(OCc3cccc(C)c3)cc2)NC(=O)NC1=O (stereo not shown) [FC-9]
IC50 [1, 2]: 0.01 to 0.1 µM

Cc1cc(COc2ccc(Sc3ccoc3C3NC(=O)NC3=O)cc2)cc[n+]1[O-] (stereo not shown) [FC-7]
IC50 [1, 2]: 0.01 to 0.1 µM

O=C1NC(=O)C(c2occc2Sc2ccc(OCc3cccc(O)c3)cc2)N1 (stereo not shown) [FC-26]
IC50 [1, 2]: < 0.01 µM

O=C1NC(=O)C(c2occc2Sc2ccc(OCc3ccccc3CO)cc2)N1 (stereo not shown) [FC-24]
IC50 [1, 2]: < 0.01 µM

NC(=O)c1cc(COc2ccc(Sc3ccoc3C3NC(=O)NC3=O)cc2)ccn1 (stereo not shown) [FC-29]
IC50 [1, 2]: 0.01 to 0.1 µM

O=C1NC(=O)C(c2occc2Sc2ccc(OCc3cccc(CO)c3)cc2)N1 (stereo not shown) [FC-23]
IC50 (recombinant human MMP-10): 1 to 10 µM | IC50 (recombinant human MMP-3): 1 to 10 µM | IC50 (recombinant human MMP-14): 1 to 10 µM | IC50 (recombinant human MMP-7): > 10 µM | IC50 (recombinant human MMP-8): 1 to 10 µM | IC50 (recombinant human MMP-1): > 10 µM | IC50 (recombinant human MMP-13): 1 to 10 µM | IC50 [1, 3]: < 0.01 µM | IC50 [1, 2]: < 0.01 µM | IC50 (recombinant human MMP-9): 1 to 10 µM | IC50 (recombinant human MMP-2): 0.1 to 1 µM

CC(C)COc1cc(COc2ccc(Sc3ccoc3C3NC(=O)NC3=O)cc2)ccn1 (stereo not shown) [FC-15]
IC50 [1, 2]: 0.1 to 1 µM
